Measurements: US11738072B2, “Tumor vaccine and uses thereof” (WestVac Biopharma Co., Ltd., priority 2017, dated 2023)

Tests used:
[1] = tested on: CT26 cells; test: CT26 cell death test by PI-AnnexinV (fluorescence microscope); format: cell-based, mouse; conditions: CT26, 24 h
Excerpt: (1) Experimental method: same as 1.

[2] = tested on: A549 cells; test: Mitochondrial membrane potential by TMRM, flow cytometry; format: cell-based; conditions: A549, 15-24 h
Description: (§1) (1) Inoculation of tumor cells in plates: A549 cells and CT26 cells in the logarithmic growth phase were prepared into a cell suspension respectively, inoculated into a 6-well plate as per 1×10^5 cells/well, 2 ml of medium was added to each well, and cultured overnight in a 5% CO2 incubator at 37° C.
(§2) (2) Different samples added to act on tumor cells: the pMVA-1 plasmid, the DOTAP cationic lipid and the pMVA-1/DOTAP complex were added to the tumor cells cultured in Step (1) respectively, and incubated at 37° C. for 15 h, 18 h, 21 h and 24 h.
(§3) (3) Preparation of TMRM dyeing working fluid (made by Life Technologies): the TMRM mother liquor was diluted with PBS at a ratio of 1:100000 to obtain the TMRM dyeing working fluid. […]
(§4) (5) The tumor cells in Step (4) were collected and treated with different samples for different times, and the tumor cells with mitochondrial membrane potential changes were analyzed by flow cytometry.
(§5) As a potentiometric fluorescence probe, tetramethylrhodamine methyl ester (TMRM) entered the cells and was cleaved by cell lactonase to produce tetramethylrhodamine, indicating strong fluorescence after they had entered mitochondria. […] Therefore, the open state of mitochondrial membrane channel pores can be verified by testing the changes of fluorescence intensity in mitochondria of tumor cells.

[3] = tested on: A549 cells; test: A549 cell death test by flow cytometry; format: cell-based; conditions: A549, 24 h, compared with blank control group
Description: The method was the same as that in 1(1).
The method was the same as that in 1(2), wherein, the concentration of DOTAP cationic lipid was 4 μg/ml, 8 μg/ml, 16 μg/ml and 32 μg/ml respectively, and the concentration of the pMVA-1/DOTAP complex was expressed by that of DOTAP cationic lipid.
The method was the same as that in 1(3).
a. A549 cells treated by different samples in the Step (3) were washed twice with cold PBS, and resuspended with 1× binding buffer for preparing a cell suspension with a density of 1×10^6 cells/ml;
b. 100 μl of A549 cell suspension prepared in Step a was pipetted into the flow test tube;
c. 5 μl of FITC Annexin V and 5 μl of PI were added to the flow test tube in Step b, mixed gently, and incubated at room temperature for 15 min in the dark;
d. 400 μl of 1× binding buffer was added to the flow test tube in Step c and tested by flow cytometry;

[4] = tested on: lysosomes of A549 cells; test: Lysosomal membrane permeability by FITC-Dextran cell localization; format: cell-based; conditions: 3 h, confocal microscope; dispersed = increased LMP
Description: (1) Inoculation of A549 cells in plates: A549 cells in the logarithmic growth phase were prepared into a cell suspension, inoculated into a 6-well plate as per approximately 1×10^5 cells/well. Then, 2 ml of medium was added to each well, and cultured overnight in a 5% CO2 incubator at 37° C.
(2) FITC-Dextran (made by Sigma) with a final concentration of 1 mg/ml was added to the cell medium in Step (1), and incubated at 37° C. for 4 h in the dark.
(3) The cells in Step (2) were washed twice with sterile PBS, 1640 medium was added, thus allowing A549 cells to be treated with the medium (blank control group), pMVA-1 plasmid (control group PMVA), DOTAP cationic lipid (control group DOTAP) and pMVA-1/DOTAP complex (experimental group PMVA-DOTAP) respectively, and incubated at 37° C. for 3 h in the dark.
(4) The cells in Step (3) were washed twice with PBS, stabilized with 4% paraformaldehyde for 10 min, washed twice with PBS, sealed. Fluorecytes were observed under a confocal microscope and the images were saved.

[5] = tested on: CT26 cells; test: Mitochondrial membrane potential by TMRM, flow cytometry; format: cell-based, mouse; conditions: CT26, 15-24 h
Description: as §1, §2, §3, §4, §5

[6] = tested on: mouse colorectal cancer cell line CT26; test: Experiment (1): model mice with abdominal metastasis of CT26, treated 9 times; format: in vivo
Description: Balb/c mice aged 6-8 weeks were raised. The mouse colorectal cancer cell line CT26 cultured to the logarithmic growth phase was prepared into a cell suspension, and mouse abdominal tumor was modeled by intraperitoneal injection. The number of cells injected into each mouse was 2×10^5, and the injection system was 100 μl for each mouse.
As described in Table 14, the mice that had been successfully modeled were divided into groups as follows: Normal group was not inoculated with tumor cell nor administrated with drugs; untreated group was intraperitoneally inoculated with CT26 cells instead of drugs; NS group was intraperitoneally inoculated with tumor cells and administrated with normal saline. After inoculation of the tumor, mice were intraperitoneally administrated on the 3rd day as follows: 15 μg of plasmid DNA and 75 μg of DOTAP for each mouse in the treatment group of plasmid DNA/DOTAP complex group; i.e. the mass ratio of plasmid DNA to DOTAP was 1:5. After that, they were administrated every three days for a total of 9 times.
The mice were administrated for 9 times in total and allowed to die naturally. The natural death dates of the mice in each experimental group were recorded, and the body weight and survival time of the mice in each experimental group were counted. The volume of ascites were counted, tumors were removed and weighed.

[7] = tested on: lysosomes of A549 cells; test: Lysosomal membrane permeability by CathepsinB intracellular localization; format: cell-based; conditions: 3 h, immunofluorescence, confocal microscope
Description: (1) Inoculation of A549 cells in plates: round sterilized cell slides were placed at the bottom of a 6-well plate, inoculated A549 cells into the 6-well plate as per 1×10^5 cells/well, 2 ml of medium was added to each well, and incubated overnight.
(2) The medium (blank control group), pMVA-1 plasmid (control group PMVA), DOTAP cationic lipid (control group DOTAP) and pMVA-1/DOTAP complex (experimental group PMVA-DOTAP) were added to A549 cells cultured in the Step (1), and incubated at 37° C. for 3 h.
(3) A549 cells treated by different groups in Step (2) were washed twice with PBS, stabilized with ice methanol for 3 min, washed twice with PBS, and sealed with PBST containing 0.3% Triton of 5% FBS for 20 min.
(4) The cells in Step (3) were washed once with PBS, and the human CathepsinB antibody (made by Abcam) was diluted at a ratio of 1:300. Incubating at room temperature for 1 h, washing with PBS three times for 5 minutes each time, adding 1:1000 fluorescent secondary antibody, and incubating at room temperature for 1 h in the dark.
(5) The cells in Step (4) were washed with PBS for three times, the films were washed with ultrapure water to remove excess water, and sealed with anti-fluorescence quencher, then cured for 6 h. Fluorescent cells were observed under a confocal microscope and the images were saved.

CCCCCCCC/C=C\CCCCCCCC(=O)OCC(C[N+](C)(C)C)OC(=O)CCCCCCC/C=C\CCCCCCCC (stereo not drawn) [DOTAP, 1,2-dioleoyl-3-trimethylammonium-propane]
PI-positive and AnnexinV-positive cells [1]: did not indicate obvious PI uptake and obvious AnnexinV-labeled positive cells | mitochondrial membrane potential [2]: did not change significantly | Annexin-V single positive, PI single positive and PI/Annexin-V double positive cells (PI uptake and Annexin-V) [3]: did not increase significantly | distribution of FITC-Dextran in cytoplasm of A549 cells [4]: distributed in dots | mitochondrial membrane potential [5]: did not change significantly | average ascites volume ([6]; 15 μg pMVA-1 and/or 75 μg DOTAP ip every 3 days x9): 3.11 mL | day after inoculation of the tumor cells on which all mice of the group had died ([6]; 15 μg pMVA-1 and/or 75 μg DOTAP ip every 3 days x9, natural death): 39 days | average tumor weight ([6]; abdominal tumor weighed after the mice died): 8.23 g | distribution of Cathepsin B in A549 cells [7]: distributed in dots
